# “Also recorded” adds a separate entry of the source.
# Tests used:
# [1] = system: MDA-MB-231; assay: Western blotting and RT-PCR expression, MDA-MB-231; type: cell-based, human; conditions: 75 nM; 24, 48 and 72 h
# Text: (§1) Logarithmic transformation of the variable was applied before the ANOVA test if required. As shown in FIG. 16A-C, Western blots are representative of three independent experiments where each bar and vertical line represents the mean±SEM, respectively (n=3). As shown in FIG. 15D-15G, C-MYC protein and mRNA levels were unchanged by Compound (1-1) treatment in all the three cell lines.
# (§2) CDKN1A (p21) mRNA levels were increased in all three cell models (p<0.001). […] Significant differences in the mRNA levels were determined by one-way ANOVA test (p<0.01) followed by SNK a posteriori test (*p<0.05, **p<0.01, […]). Logarithmic transformation of the variable was applied before the ANOVA test if required. Each bar and vertical line represents the mean±SEM, respectively (n=3). Western blots are representative of 3 independent experiments.
# [2] = system: HCC1937; assay: MTT proliferation assay, HCC1937; conditions: Homo sapiens
# [3] = system: MDA-MB-231 nude mice-derived xenografts; assay: MDA-MB-231 xenografts in nude mice; type: in vivo
# Protocol: In vivo assays were performed in 8-week-old female MDA-MB-231 nude mice-derived xenografts. 10×10^6 cells were injected, when tumor volume reached 100 mm^3, mice were randomized to 4 groups (n=9): 1) vehicle; 2) 50 mg/kg Compound (1-1) (BID, po); 3) 2 mg/kg of everolimus (3 time a week, ip); 4) combination Compound (1-1) and everolimus; 4 weeks treatment.
# Symbols with • indicate significant differences between treatment vs. vehicle-treated mice (p<0.05). * indicates a significant difference in the tumor mass between the combination treated animals and the two single agent groups (*p<0.05, **p<0.01 and ***p<0.001). Results represent the mean±SEM (during the treatment period, n=9). Variation of animal body weight during treatment is illustrated in FIG. 18B. […] The T/C ratio was 39% after 10 days of combination treatment, with an optimal value of 21% on day 23. Compound (1-1) can be used for the treatment of TNBC, either alone or in combination with mTOR inhibitors.
# [4] = system: MDA-MB-231; assay: Cell counting proliferation, MDA-MB-231; type: cell-based; conditions: Homo sapiens
# [5] = system: HCC1937; assay: Western blotting and RT-PCR expression, HCC1937; type: cell-based, human; conditions: 650 nM; 24, 48 and 72 h
# Text: as §1, §2
# [6] = system: MDA-MB-231; assay: MTT proliferation assay, MDA-MB-231; conditions: Homo sapiens
# [7] = system: MDA-MB-468; assay: MTT proliferation assay, MDA-MB-468; conditions: for Emax / GI50: Homo sapiens
# [8] = system: MDA-MB-468; assay: Western blotting and RT-PCR expression, MDA-MB-468; type: cell-based, human; conditions: 24, 48 and 72 h
# Text: as §1, §2
# [9] = HCC1937, 48 h, 48 h exposure, hypoxia (0.1% O2)
# [10] = HCC1937, 48 h, 48 h exposure, normoxia
# [11] = HCC1937, 72 h, 72 h exposure, hypoxia (0.1% O2)
# [12] = Compound (1-1) 50 mg/kg BID po, everolimus 2 mg/kg 3 time a week ip, 4 weeks treatment
# [13] = MDA-MB-231, 48 h, 48 h exposure, hypoxia (0.1% O2)
# [14] = MDA-MB-231, 48 h, 48 h exposure, normoxia
# [15] = MDA-MB-231, 72 h, 72 h exposure, hypoxia (0.1% O2)
# [16] = MDA-MB-231, 72 h, 72 h exposure, normoxia
# [17] = MDA-MB-468, 48 h, 48 h exposure, normoxia
# [18] = MDA-MB-468, 72 h, 72 h exposure, hypoxia (0.1% O2)
# [19] = 650 nM, listed as compound (1-1), dihydrate
structure (smiles),measurement,setting,value
"Cc1sc2c(c1C)C(c1ccc(Cl)cc1)=N[C@@H](CC(=O)Nc1ccc(O)cc1)c1nnc(C)n1-2 [Compound (1-1), 2-[(6S)-4-(4-chlorophenyl)-2,3,9-trimethyl-6H-thienol[3,2-f]-[1,2,4]triazolo[4,3-a][1,4]diazepin-6-yl]-N-(4-hydroxyphenyl)acetamide dihydrate]",BRD2 levels,[1],increased
same,Emax,[2]; [9],60%
same,GI50,[2]; [9],23.1 nM
same,Emax,[2]; [10],41%
same,GI50,[2]; [10],110 nM
same,Emax,[2]; [11],74%
same,GI50,[2]; [11],29 nM
same,Emax,"[2]; HCC1937, 72 h, 72 h exposure, normoxia",51%
same,GI50,"[2]; HCC1937, 72 h, 72 h exposure, normoxia, * = apparent value",81.9 nM
same,body weight,"[3]; 50 mg/kg BID po, after 19 days of treatment",without body weight loss
same,best T/C %,[3]; [12],40.7%
same,tumor mass with respect to vehicle-treated mice,[3]; [12],significant (p<0.05) reduction
same,Emax,[4]; [13],67%
same,GI50,[4]; [13],144 nM
same,Emax,[4]; [14],71%
same,GI50,[4]; [14],92.2 nM
same,Emax,[4]; [15],82%
same,GI50,[4]; [15],49.1 nM
same,Emax,[4]; [16],89%
same,GI50,[4]; [16],55.9 nM
same,mRNA levels of BRD3,[5],reduced
same,Emax,[6]; [13],68%
same,GI50,[6]; [13],63.3 nM
same,Emax,[6]; [14],71%
same,GI50,[6]; [14],132 nM
same,Emax,[6]; [15],83%
same,GI50,[6]; [15],48.2 nM
same,Emax,[6]; [16],83%
same,GI50,[6]; [16],81.7 nM
same,Emax,"[7]; MDA-MB-468, 48 h, 48 h exposure, hypoxia (0.1% O2)",53%
same,GI50,"[7]; MDA-MB-468, 48 h, 48 h exposure, hypoxia (0.1% O2), * = apparent value",258 nM
same,Emax,[7]; [17],< 10%
same,GI50,[7]; [17],> 6000 nM
same,Emax,[7]; [18],77%
same,GI50,[7]; [18],296 nM
same,Emax,"[7]; MDA-MB-468, 72 h, 72 h exposure, normoxia",42%
same,GI50,"[7]; MDA-MB-468, 72 h, 72 h exposure, normoxia, * = apparent value",448 nM
same,effect of hypoxia on antiproliferative activity,"[7]; hypoxia (0.1% O2) vs normoxia, MTT assay and cell counting",significantly (p<0.05) increased
same,BRD2 levels,[8]; 650 nM,increased
same,mRNA levels of BRD3,[8]; 650 nM,reduced
same,mRNA levels of BRD4,[8]; 650 nM,downregulated
same,c-Myc expression (mRNA and protein),"[8]; 650 nM, dihydrate",down-regulated
same,c-Myc expression (mRNA and protein),[8]; [19],downregulated; also recorded: downregulation
same,mRNA levels of n-Myc,[8]; [19],downregulated; also recorded: downregulation
same,expression levels of c-MYC and n-MYC,"[8]; RT-PCR, 500 nM",marked (p<0.05) reduction

# Source: patent US9968619B2, “Method of treating triple-negative breast cancer using thienotriazolodiazepine compounds” (ONCOETHIX GMBH, priority 2014, dated 2018)
